Laboratory results reported in patent US11524950B2, “Treatment of immune-related and inflammatory diseases” (Celgene Corporation, priority 2012, dated 2022).
Where two headings read alike, the source gives them in different places.

Legend:
[1] = system: IL-6; experiment: LPS-stimulated hPBMC cytokine production: IL-6; assay type: cell-based; conditions: Homo sapiens; LPS 1 ng/ml, 18 hours
Experimental: (§1) 50 ml human buffy coat was aliquoted 25 ml each into two 50 ml conical tubes and 25 ml sterile HBSS was added to each conical tube. The tubes were gently mixed by inverting. Fifteen ml of room temperature Ficoll-Paque Plus (GE Healthcare (location); cat #17-1440-02) was aliquoted into four 50 ml conical tubes. Then 25 ml of the Buffy coat/HBSS mixture was layered gently and slowly on top of the Ficoll. The samples were centrifuged at 450 rpm for 35 minutes. The top layered containing plasma was pipetted off and discarded. The interface containing mononuclear cells was transferred into two 50 ml conical tubes. Both conical tubes were filled to total volume of 50 ml with HBSS and centrifuged at 1200 rpm for 10 minutes. The cells were washed again in HBSS and spun at 1000 rpm for 10 minutes. Cell pellet was resuspended with 20 ml RPMI complete medium (RPMI/5% human sera/1× pen/strep/glut) and counted.
(§2) One hundred μl (2×10^6/ml) of hPBMCs were added to each well of a 96 well flat-bottom plate (final cell count=2×10^5/well) and incubated at 37° C. for 1 hour. […] compound was added to each test well and twenty μl medium containing 2.5% DMSO was added to each control well ([DMSO]final=0.25%) and plate was incubated for 1 hour at 37° C. Cells were then stimulated with […] 2.5 ng/ml LPS ([LPS]final=1 ng/ml) and incubated for 18 hours at 37° C.
(§3) 50 μl supernatant from each well was transferred into 3 new round-bottomed 96 well plates and stored at −20° C. for Luminex analysis. Duplicate wells were performed for each sample.
(§4) Supernatant samples were analyzed for cytokines in multiplex format according to the manufacturer's instructions (Millipore, Billerica, Ma 01821) using a Luminex IS100 instrument. IL-12 and GM-CSF analyses were done in a two-plex format using neat supernatants while all other cytokines were done in a multiplex format using supernatants diluted 1:20. Data analysis was performed using Upstate Beadview software. […] The IC50 were performed using GraphPad Prism v5.00. […]

[2] = system: GM-CSF; experiment: LPS-stimulated hPBMC cytokine production: GM-CSF; assay type: cell-based; conditions: Homo sapiens
Experimental: as §1, §2, §3, §4

[3] = system: MIP-1α; experiment: LPS-stimulated hPBMC cytokine production: MIP-1α; assay type: cell-based; conditions: Homo sapiens
Experimental: as §1, §2, §3, §4

[4] = system: MIP-1β; experiment: LPS-stimulated hPBMC cytokine production: MIP-1β; assay type: cell-based; conditions: Homo sapiens; LPS 1 ng/ml, 18 hours
Experimental: as §1, with “Fifteen ml of room temperature Ficoll-Paque Plus (GE Healthcare (location); cat #17-1440-02) was aliquoted into four 50 ml conical tubes.” left out
Cells were then stimulated with […] 2.5 ng/ml LPS ([LPS]final=1 ng/ml) and incubated for 18 hours at 37° C.
as §3
IL-12 and GM-CSF analyses were done in a two-plex format using neat supernatants while all other cytokines were done in a multiplex format using supernatants diluted 1:20. Data analysis was performed using Upstate Beadview software. […] The IC50 were performed using GraphPad Prism v5.00. The data values represent the mean±SEM (standard error of the mean) of n (number of experiments in duplicate).

[5] = system: TNF-α; experiment: LPS-stimulated hPBMC cytokine production: TNF-α; assay type: cell-based; conditions: Homo sapiens; LPS 1 ng/ml, 18 hours
Experimental: as §1, §2, §3, §4

[6] = system: IL-10; experiment: LPS-stimulated hPBMC cytokine production: IL-10 enhancement; assay type: cell-based, human; conditions: at 0.1 μM
Experimental: as §1, §2, §3, §4

[7] = system: MCP-1; experiment: LPS-stimulated hPBMC cytokine production: MCP-1 enhancement; assay type: cell-based, human; conditions: at 0.1 μM
Experimental: as §1, §2, §3, §4

[8] = system: Human umbilical vascular endothelial cells; experiment: Human umbilical vascular endothelial cell invasion assay; assay type: cell-based; conditions: for IC50: Homo sapiens; for VEGF-, bFGF-, and HGF-induced HUVEC invasion: dose-dependent
Experimental: Human Umbilical Vascular Endothelial Cell Invasion Assay: In the HUVEC invasion assay, the concentration of human fibronectin is optimized to provide a suitable protein structure for adherent cells to attach to the membrane and allow free migration in response to an angiogenic stimulus (e.g. VEGF, bFGF, or HGF) in the lower chamber of the insertplate. HUVECs were starved in 0.1% BSA EBM2 medium for 6 hours after washing with the same medium 3 times. The cells were then trypsinized and centrifuged to remove the remaining trypsin. Then ˜0.5 to 1×10^6 cells in 125 μL/well and 125 μL of […] serially diluted compounds (10, 1, 0.1, 0.01, 0.001 μM) were added to the upper chamber of the BD Falcon 24-well and 96-well insert plates in duplicate and incubated for […]. (The plates contain a fluorescence blocking, microporous [3.0 μm pore size] PET membrane that has been evenly coated with human fibronectin.) Seven hundred fifty microliters of a 1.33×stock solution of VEGF (final concentration of 25 ng/mL), bFGF (final concentration of 10 ng/mL), or HGF (final concentration of 25 ng/mL) were then added to the lower chamber. The cells were incubated for 22±1 hours at 37° C. The migrated cells were stained with calcein AM at […] in HBSS containing 2% FBS, using 500 μL/well in 24-well plates and 200 μL/well in 96-well plates. The plates were incubated at 37° C. for 90 minutes and read in a fluorescence plate reader.
The percentage inhibition of cell proliferation, tube formation, migration, and invasion was calculated by subtracting the result for unstimulated DMSO control from test sample results, averaging all replicates, and normalizing to the growth factor-stimulated DMSO control (0% inhibition). The IC50 values were calculated by using GraphPad Prism 5.0.

[9] = system: H929 cells; experiment: H929 cell cycle (S-phase) and survivin, pRB, p27 expression; assay type: cell-based
[10] = Endothelial cell, HGF 25 ng/mL, read-out: HGF-induced invasion IC50 Values
[11] = Endothelial cell, VEGF 25 ng/mL, read-out: VEGF-induced invasion IC50 Values
[12] = Endothelial cell, bFGF 10 ng/mL, read-out: bFGF-induced invasion IC50 Values
[13] = HUVEC, growth factor not given, read-out: IC50 (HUVEC invasion)
[14] = LPS 1 ng/ml, 18 hours, read-out: GM-CSF IC50
[15] = LPS 1 ng/ml, 18 hours, read-out: MIP-1α IC50

O=C1CCC(N2Cc3c(OCc4ccc(CN5CCOCC5)cc4)cccc3C2=O)C(=O)N1 (racemic) [Racemate, 3-[4-(4-morphlin-4-ylmethylbenzyloxy)-1-oxo-1,3-dihydro-isoindo-2-yl]piperidine-2,6-dione]
IC50 [1]: 0.01 µM
IC50 ([2]; 18 h, read-out: GM-CSF IC50 (μM)): 0.0092 µM
IC50 ([3]; 18 h, read-out: MIP-1α IC50 (μM)): 0.19 µM
IC50 [4]: > 10 µM
IC50 [5]: 0.0018 µM
IL-10 Mean % of Control [6]: 371 % of control
MCP-1 Mean % of Control [7]: 208 % of control
IC50 [8, 10]: 0.59 µM
IC50 [8, 11]: 0.00014 µM
IC50 [8, 12]: 0.00042 µM
IC50 [8, 13]: 0.0004 µM
VEGF-, bFGF-, and HGF-induced HUVEC invasion [8]: significantly inhibited

O=C1CC[C@H](N2Cc3c(OCc4ccc(CN5CCOCC5)cc4)cccc3C2=O)C(=O)N1 [Test compound, (S)-3-[4-(4-morphlin-4-ylmethylbenzyloxy)-1-oxo-1,3-dihydro-isoindo-2-yl]piperidine-2,6-dione]
IC50 [1]: 0.0038 µM
IC50 [2, 14]: 0.0022 µM
IC50 [3, 15]: 0.028 µM
IC50 [4]: > 10 µM
IC50 [5]: 0.00059 µM
IL-10 Mean % of Control [6]: 379 % of control
MCP-1 Mean % of Control [7]: 233 % of control
IC50 [8, 10]: 0.019 µM
IC50 [8, 11]: < 0.0001 µM
IC50 [8, 12]: < 0.0001 µM
IC50 [8, 13]: < 0.0001 µM
VEGF-, bFGF-, and HGF-induced HUVEC invasion [8]: significantly inhibited
decrease in cell cycle (S-phase) ([9]; 24 hours of treatment): 50%
expression of cyclin-dependent kinase inhibitor p27 ([9]; 48 hours): increased expression
expression of retinoblastoma protein (pRB) ([9]; 48 hours): decreased expression
expression of survivin ([9]; 48 hours): decreased expression

O=C1CC[C@@H](N2Cc3c(OCc4ccc(CN5CCOCC5)cc4)cccc3C2=O)C(=O)N1 [R-enantiomer, (R)-3-[4-(4-morphlin-4-ylmethylbenzyloxy)-1-oxo-1,3-dihydro-isoindo-2-yl]piperidine-2,6-dione]
IC50 [1]: 0.083 µM
IC50 [2, 14]: 0.039 µM
IC50 [3, 15]: 0.45 µM
IC50 [4]: > 10 µM
IC50 [5]: 0.0095 µM
IL-10 Mean % of Control [6]: 442 % of control
MCP-1 Mean % of Control [7]: 223 % of control
IC50 [8, 10]: 0.45 µM
IC50 [8, 11]: < 0.0001 µM
IC50 [8, 12]: 0.013 µM
IC50 [8, 13]: 0.013 µM
VEGF-, bFGF-, and HGF-induced HUVEC invasion [8]: significantly inhibited
